# Measurements as given in patent publication US20150202172A1, “NOVEL METHOD OF USE” (Glaxo Group Limited, priority 2014, published 2015).
# Legend:
# [1] = system: patients with Severe Refractory Chronic Hand Eczema (CHE); experiment: Clinical trial simulation (longitudinal dose response model): PGA score at end of treatment; assay type: in vivo, human; conditions: 30 mg
# Experimental: (§1) In clinical studies, efficacy was measured using PGA score and modified total lesion signs and symptoms (mTLSS) at various times during and post treatment. PGA scores over time were chosen for this analysis because PGA scores were the primary endpoint in the Phase III studies and were collected at more time points than the mTLSS. The PGA was graded according to 5 point scale (clear, almost clear, mild disease, moderate disease, severe disease). The mTLSS severity score was graded 0 to 3 for 7 parameters.
# For the Physician Global Assessment (PGA), a general description of CHE severity, which is a well recognized scale is shown below in Table 7 for clarification purposes.
# [2] = system: patients with Severe Refractory Chronic Hand Eczema (CHE); experiment: Clinical trial simulation (longitudinal dose response model): time from initial dose to onset of effect; assay type: in vivo, human; conditions: for Time to Onset of Effect (a Drop of 2 or More Points in PGA in 30% of Subjects): 30 mg
# Experimental: In reviewing the data to make these determinations, all available PGA scores observed (not including scores derived from missing data such as last observation carried forward (LOCF) including those at baseline, every 4 weeks during treatment, and every 4 to 8 weeks after cessation of treatment for up to 72 weeks post treatment from the various clinical trials were used to develop a longitudinal dose response model.
# as §1
# A >2 weeks time to onset is considered clinically relevant.
smiles,measurement,setting,value
"CC1=C(/C=C/C(C)=C\C=C\C(C)=C\C(=O)O)C(C)(C)CCC1 [Alitretinoin, 9-cis isomer of retinoic acid (RA)]",Proportion of Responders (PGA = 1 or 2) at End of Treatment,[1]; age 30 yr,"33.9 (26, 42) %"
same,Proportion of Subjects (PGA = 2) at End of Treatment,[1]; age 30 yr,"22.9 (16, 30) %"
same,Proportion of Subjects (PGA = 3) at End of Treatment,[1]; age 30 yr,"28.4 (21, 36) %"
same,Proportion of Responders (PGA = 1 or 2) at End of Treatment,[1]; age 50 yr,"41.1 (33, 49) %"
same,Proportion of Subjects (PGA = 1) at End of Treatment,[1]; age 50 yr,"14.9 (9, 21) %"
same,Proportion of Subjects (PGA = 2) at End of Treatment,[1]; age 50 yr,"26.3 (20, 34) %"
same,Proportion of Subjects (PGA = 3) at End of Treatment,[1]; age 50 yr,"28.3 (20, 35) %"
same,Proportion of Responders (PGA = 1 or 2) at End of Treatment,[1]; age 65 yr,"48.0 (40, 56) %"
same,Proportion of Subjects (PGA = 1) at End of Treatment,[1]; age 65 yr,"19.3 (13, 26) %"
same,Proportion of Subjects (PGA = 2) at End of Treatment,[1]; age 65 yr,"28.7 (22, 36) %"
same,Proportion of Subjects (PGA = 3) at End of Treatment,[1]; age 65 yr,"27.1 (19, 35) %"
same,Proportion of Responders (PGA = 1 or 2) at End of Treatment,[1]; age 75 yr,"53.0 (45, 62) %"
same,Proportion of Subjects (PGA = 1) at End of Treatment,[1]; age 75 yr,"22.8 (16, 30) %"
same,Proportion of Subjects (PGA = 2) at End of Treatment,[1]; age 75 yr,"30.2 (23, 37) %"
same,Proportion of Subjects (PGA = 3) at End of Treatment,[1]; age 75 yr,"25.8 (18, 33) %"
same,Proportion of Responders (PGA = 1 or 2) at End of Treatment,[1]; duration of treatment 4 weeks,"4.3 (1, 8) %"
same,Proportion of Subjects (PGA = 1) at End of Treatment,[1]; duration of treatment 4 weeks,"1.3 (1, 2) %"
same,Proportion of Subjects (PGA = 2) at End of Treatment,[1]; duration of treatment 4 weeks,"3.7 (1, 7) %"
same,Proportion of Subjects (PGA = 3) at End of Treatment,[1]; duration of treatment 4 weeks,"10.5 (5, 16) %"
same,Proportion of Responders (PGA = 1 or 2) at End of Treatment,[1]; duration of treatment 8 weeks,"15.2 (10, 21) %"
same,Proportion of Subjects (PGA = 1) at End of Treatment,[1]; duration of treatment 8 weeks,"3.6 (1, 7) %"
same,Proportion of Subjects (PGA = 2) at End of Treatment,[1]; duration of treatment 8 weeks,"11.7 (7, 17) %"
same,Proportion of Subjects (PGA = 3) at End of Treatment,[1]; duration of treatment 8 weeks,"22.5 (16, 29) %"
same,Proportion of Responders (PGA = 1 or 2) at End of Treatment,[1]; duration of treatment 12 weeks,"23.7 (16, 31) %"
same,Proportion of Subjects (PGA = 1) at End of Treatment,[1]; duration of treatment 12 weeks,"6.6 (3, 11) %"
same,Proportion of Subjects (PGA = 2) at End of Treatment,[1]; duration of treatment 12 weeks,"17.1 (11, 24) %"
same,Proportion of Subjects (PGA = 3) at End of Treatment,[1]; duration of treatment 12 weeks,"26.4 (19, 34) %"
same,Proportion of Responders (PGA = 1 or 2) at End of Treatment,[1]; duration of treatment 16 weeks,"30.2 (23, 38) %"
same,Proportion of Subjects (PGA = 1) at End of Treatment,[1]; duration of treatment 16 weeks,"9.2 (5, 14) %"
same,Proportion of Subjects (PGA = 2) at End of Treatment,[1]; duration of treatment 16 weeks,"21.0 (14, 28) %"
same,Proportion of Subjects (PGA = 3) at End of Treatment,[1]; duration of treatment 16 weeks,"27.7 (21, 35) %"
same,Proportion of Responders (PGA = 1 or 2) at End of Treatment,[1]; duration of treatment 20 weeks,"35.4 (28, 43) %"
same,Proportion of Subjects (PGA = 1) at End of Treatment,[1]; duration of treatment 20 weeks,"11.9 (7, 17) %"
same,Proportion of Subjects (PGA = 2) at End of Treatment,[1]; duration of treatment 20 weeks,"23.6 (17, 31) %"
same,Proportion of Subjects (PGA = 3) at End of Treatment,[1]; duration of treatment 20 weeks,"28.0 (21, 35) %"
same,Proportion of Responders (PGA = 1 or 2) at End of Treatment,[1]; duration of treatment 24 weeks,"40.4 (33, 48) %"
same,Proportion of Subjects (PGA = 1) at End of Treatment,[1]; duration of treatment 24 weeks,"14.7 (9, 21) %"
same,Proportion of Subjects (PGA = 2) at End of Treatment,[1]; duration of treatment 24 weeks,"25.7 (19, 33) %"
same,Proportion of Subjects (PGA = 3) at End of Treatment,[1]; duration of treatment 24 weeks,"28.2 (21, 35) %"
same,faster time to onset of effect,[2]; 65 or 75 year old compared with a 30 year old,> 2 weeks
same,Time to Onset of Effect (a Drop of 2 or More Points in PGA in 30% of Subjects),[2]; age 30 yr,"58 (49, 70) Days"
same,Time to Onset of Effect (a Drop of 2 or More Points in PGA in 30% of Subjects),[2]; age 50 yr,"49 (42, 56) Days"
same,Time to Onset of Effect (a Drop of 2 or More Points in PGA in 30% of Subjects),[2]; age 65 yr,"43 (35, 49) Days"
